From patent US20230020092 (published 2023) come the findings set out here.

The data set in a line: fmoc spps; Rink amide resin (1.0 mmol/g); HATU/DIEA (cyclization). The conditions noted are these: conjugation step, scale 1 mmol, TFA salt.

{C6NH2} = C6 amino linker (-C6-NH2)

As for “5'-GCT ATT ACC TTA ACC CAG-3' -C6-NH2 (all PMO monomers) (SEQ ID NO: 222) (GCTATTACCTTAACCCAG; all phosphorodiamidate morpholino (PMO), 3' {C6NH2})”, the “final purity method not stated” value is over 99%.
